Measurements: patent US9504676B2, “Molecules inhibiting a metabolic pathway involving the Syk protein tyrosine kinase and method for identifying said molecules” (CENTRE NATIONAL DE LA RECHERCHE SCIENTIFIQUE, priority 2008, dated 2016)

What was measured:
BALB/c mice [1] = experiment: Passive cutaneous anaphylaxis (PCA); assay type: in vivo; design: unit not given here; details: local intradermal injection in the ear
Method: (§1) Finally, to extend these observations to mast cell functions in vivo, the inventors tested the effects of C-13 on passive systemic (PSA) and cutaneous anaphylaxis (PCA) induced in BALB/c mice by administering DNP-specific IgE molecules followed by intravenous stimulation with DNP-KLH hapten. […] The intensity of systemic anaphylaxis was determined by measuring both the drop in body temperature and the increase in vascular permeability following antigen administration.
(§2) • 1) Chemical products and antibodies. A chemical bank of 3000 molecules (a varied subset) was acquired from ChemBridge, Inc. (San Diego, Calif.). Stocks of solutions of small molecules were prepared at a rate of 10 mM in DMSO (dimethylsulphoxide), except for C-13 (methyl 2-{5-[(3-benzyl-4-oxo-2-thioxo-1,3-thiazolidin-5-ylidene)methyl]-2-furyl}benzoate, ChemBridge ID No. 6197026) prepared in DMF (dimethylformamide). Unless specified otherwise, all the reagents were supplied by Sigma. […] The binding of G4G11 with Syk was assessed by adding the 9E10 monoclonal antibody conjugated with HRP detecting the amino acid sequence EQKLISEEDLN of human c-myc protein located at the C-terminal end of the scFv fragment. To generate Syk mutants, targeted mutagenesis was used on GST:Syk 6-242 protein and the binding of G4G11 with the mutants was assessed in the presence of 5 μM of C-13. • 3) Cells, culture conditions and functional tests. […]

BALB/c mice [2] = experiment: IgE-induced passive systemic anaphylaxis (PSA); assay type: in vivo
Method: as §1, §2

COC(=O)c1ccccc1-c1ccc(/C=C2/SC(=S)N(Cc3ccccc3)C2=O)o1 [Molecule C-13, methyl 2-{5-[(3-benzyl-4-oxo-2-thioxo-1,3-thiazolidin-5-ylidene)methyl]-2-furyl}benzoate]
estimated IC50, inhibitory effect on PCA (BALB/c mice [1]): ~25 | colour of ears and tail (Evans blue extravasation) in PSA (BALB/c mice [2]; oral administration of 130 mg/kg): light blue colour | hypothermia (drop in body temperature) in PSA (BALB/c mice [2]; single oral dose of 100 mg/kg): inhibited hypothermia
